This note sets out measurements from patent publication US6855710B2, “Substituted indolines with an inhibitory effect on various kinases and complexes of CDKs” (Boehringer Ingelheim Pharma KG, priority 1998, dated 2005).

Each structure is given as a SMILES string.

With `CC(C)(C)OC(=O)NCc1ccc(N/C(=C2\C(=O)Nc3ccc([N+](=O)[O-])cc32)c2ccc(CNC(=O)c3ccccc3C(=O)O)cc2)cc1` [Example 147, (Z)-3-{1-[4-tert.butoxycarbonylaminomethyl-phenylamino]-1-[4-(2-carboxyphenyl)-carbonylaminomethyl-phenyl]-methylidene}-5-nitro-2-indolinone], the melting point was 138 °C (dec.). In turn, `CC(C)(C)OC(=O)NCc1ccc(N/C(=C2\C(=O)Nc3ccc([N+](=O)[O-])cc32)c2ccc(CN)cc2)cc1` [Example 148, (Z)-3-[1-(4-tert.butoxycarbonylaminomethyl-phenylamino)-1-(4-aminomethyl-phenyl)-methylidene]-5-nitro-2-indolinone] had a melting point of 220 to 223 °C.

`CC(=O)NCc1ccc(/C(Nc2ccc(CNC(=O)OC(C)(C)C)cc2)=C2/C(=O)Nc3ccc([N+](=O)[O-])cc32)cc1` [Example 150, (Z)-3-[1-(4-tert.butoxycarbonylaminomethyl-phenylamino)-1-(4-acetylaminomethyl-phenyl)-methylidene]-5-nitro-2-indolinone]: the melting point was 234 °C (dec.). As for `O=C1Nc2ccc([N+](=O)[O-])cc2/C1=C(/Nc1ccccc1)c1ccc(CN2C(=O)c3ccccc3C2=O)cc1` [Example 153, (Z)-3-[1-phenylamino-1-(4-phthalimidomethyl-phenyl)-methylidene]-5-nitro-2-indolinone], the melting point was 334 to 336 °C (dec.). As to `NCc1ccc(/C(Nc2ccccc2)=C2/C(=O)Nc3ccc([N+](=O)[O-])cc32)cc1` [Example 154, (Z)-3-[1-phenylamino-1-(4-aminomethyl-phenyl)-methylidene]-5-nitro-2-indolinone], the melting point was 332 °C (dec.).

Consider `CC(C)(C)OC(=O)NCCc1ccc(N/C(=C2\C(=O)Nc3ccc([N+](=O)[O-])cc32)c2ccc(CN)cc2)cc1` [Example 155, (Z)-3-{1-[4-(2-tert.butoxycarbonylamino-ethyl)-phenylamino]-1-(4-aminomethyl-phenyl)-methylidene}-5-nitro-2-indolinone], for which the melting point was 215 to 217 °C (dec.). The same measure for `CC(=O)NCc1ccc(/C(Nc2ccc(CCNC(=O)OC(C)(C)C)cc2)=C2/C(=O)Nc3ccc([N+](=O)[O-])cc32)cc1` [Example 157, (Z)-3-{1-[4-(2-tert.butoxycarbonylamino-ethyl)-phenylamino]-1-(4-acetylaminomethyl-phenyl)-methylidene}-5-nitro-2-indolinone]: 94 °C (dec.). On to `CCN(CC)Cc1ccc(N/C(=C2\C(=O)Nc3ccc([N+](=O)[O-])cc32)c2ccccc2)cc1` [Example 159, (Z)-3-[1-(4-diethylaminomethyl-phenylamino)-1-phenyl-methylidene]-5-nitro-2-indolinone], for which the melting point lay within 173 to 174 °C.

Take `CCNCc1ccc(N/C(=C2\C(=O)Nc3ccc([N+](=O)[O-])cc32)c2ccccc2)cc1` [Example 160, (Z)-3-[1-(4-ethylaminomethyl-phenylamino)-1-phenyl-methylidene]-5-nitro-2-indolinone]: the melting point lay in the range of 220 to 223 °C. `CCCN(CCC)Cc1ccc(N/C(=C2\C(=O)Nc3ccc([N+](=O)[O-])cc32)c2ccccc2)cc1` [Example 161, (Z)-3-[1-(4-Dipropylaminomethyl-phenylamino)-1-phenyl-methylidene]-5-nitro-2-indolinone] gave a melting point of 160 to 162 °C. `CCCNCc1ccc(N/C(=C2\C(=O)Nc3ccc([N+](=O)[O-])cc32)c2ccccc2)cc1` [Example 162, (Z)-3-[1-(4-propylaminomethyl-phenylamino)-1-phenyl-methylidene]-5-nitro-2-indolinone] returned a melting point of 201 to 202 °C. In turn, `CC(C)CN(Cc1ccc(N/C(=C2\C(=O)Nc3ccc([N+](=O)[O-])cc32)c2ccccc2)cc1)CC(C)C` [Example 163, (Z)-3-[1-(4-Diisobutylaminomethyl-phenylamino)-1-phenyl-methylidene]-5-nitro-2-indolinone] registered a melting point of 204 to 207 °C. `CC(C)CNCc1ccc(N/C(=C2\C(=O)Nc3ccc([N+](=O)[O-])cc32)c2ccccc2)cc1` [Example 164, (Z)-3-[1-(4-isobutylaminomethyl-phenylamino)-1-phenyl-methylidene]-5-nitro-2-indolinone] showed a melting point of 208 °C.

In turn, `CCCCN(CCCC)Cc1ccc(N/C(=C2\C(=O)Nc3ccc([N+](=O)[O-])cc32)c2ccccc2)cc1` [Example 165, (Z)-3-[1-(4-Dibutylaminomethyl-phenylamino)-1-phenyl-methylidene]-5-nitro-2-indolinone] gave a melting point of 175 °C.

`CCCCNCc1ccc(N/C(=C2\C(=O)Nc3ccc([N+](=O)[O-])cc32)c2ccccc2)cc1` [Example 166, (Z)-3-[1-(4-butylaminomethyl-phenylamino)-1-phenyl-methylidene]-5-nitro-2-indolinone] came in with a melting point of 183 °C. `CS(=O)(=O)NCc1ccc(N/C(=C2\C(=O)Nc3ccc([N+](=O)[O-])cc32)c2ccccc2)cc1` [Example 167, (Z)-3-[1-(4-methylsulphonylaminomethyl-phenylamino)-1-phenyl-methylidene]-5-nitro-2-indolinone] had a melting point of 294 to 296 °C. Consider `O=C1Nc2ccc([N+](=O)[O-])cc2/C1=C(/Nc1ccc(CN2CCC(O)CC2)cc1)c1ccccc1` [Example 168, (Z)-3-{1-[4-(4-hydroxypiperidinomethyl)-phenylamino]-1-phenyl-methylidene}-5-nitro-2-indolinone], for which the melting point was determined as 155 °C. `CC1CCN(Cc2ccc(N/C(=C3\C(=O)Nc4ccc([N+](=O)[O-])cc43)c3ccccc3)cc2)CC1` [Example 169, (Z)-3-{1-[4-(4-methylpiperidinomethyl)-phenylamino]-1-phenyl-methylidene}-5-nitro-2-indolinone] gave a melting point of 161 °C.

`COC1CCN(Cc2ccc(N/C(=C3\C(=O)Nc4ccc([N+](=O)[O-])cc43)c3ccccc3)cc2)CC1` [Example 171, (Z)-3-{1-[4-(4-methoxypiperidinomethyl)-phenylamino]-1-phenyl-methylidene}-5-nitro-2-indolinone] returned a melting point of 204 to 206 °C. Regarding `O=C1Nc2ccc([N+](=O)[O-])cc2/C1=C(/Nc1ccc(CN2CCC(Cc3ccccc3)CC2)cc1)c1ccccc1` [Example 172, (Z)-3-{1-[4-(4-phenylmethyl-piperidinomethyl)-phenylamino]-1-phenyl-methylidene}-5-nitro-2-indolinone], the melting point was 252 °C.

The molecule `COCCNCc1ccc(N/C(=C2\C(=O)Nc3ccc([N+](=O)[O-])cc32)c2ccccc2)cc1` [Example 174, (Z)-3-{1-[4-(2-methoxyethylaminomethyl)-phenylamino]-1-phenyl-methylidene}-5-nitro-2-indolinone] registered a melting point of 184 to 185 °C. In turn, `CCC1CCN(Cc2ccc(N/C(=C3\C(=O)Nc4ccc([N+](=O)[O-])cc43)c3ccccc3)cc2)CC1` [Example 175, (Z)-3-{1-[4-(4-ethylpiperidinomethyl)-phenylamino]-1-phenyl-methylidene}-5-nitro-2-indolinone] came in with a melting point of 225 to 227 °C.
